Laboratory results as given in patent US12691107B2, “Methods for the treatment and prevention of lung infections caused by gram-positive bacteria, fungus, or virus by administration of tafenoquine” (priority 2020, dated 2026).
In brackets after ≈: the same amount, converted by molar mass. Several values for one entry are separate records, joined by “and”; a condition that tells them apart may be missing. Equal values may be shown once. Read-outs that look alike come from different tables or passages of the source.

Legend:
Candida albicans = assay: Antifungal MIC (RPMI-1640 microdilution); assay type: cell-based
Fusarium sp. = assay: Antifungal MIC (RPMI-1640 microdilution); assay type: cell-based
Cryptococcus neoformans = assay: Antifungal MIC (RPMI-1640 microdilution); assay type: cell-based
Curvularia sp. = assay: Antifungal MIC (RPMI-1640 microdilution); assay type: cell-based
Altenaria sp. = assay: Antifungal MIC (RPMI-1640 microdilution); assay type: cell-based; conditions: isolate Alt1
Scedosporium sp. = assay: Antifungal MIC (RPMI-1640 microdilution); assay type: cell-based
Streptococcus pneumoniae = assay: Antibacterial MIC (broth microdilution); assay type: cell-based; conditions: CA-MHB with 3% LHB
Enterococcus faecium = assay: Antibacterial MIC (broth microdilution); assay type: cell-based; conditions: isolate 1593
P. aeruginosa = assay: Antibacterial MIC (broth microdilution); assay type: cell-based; conditions: Pseudomonas aeruginosa
Emergomyces sp. = assay: Antifungal MIC (RPMI-1640 microdilution); assay type: cell-based
[1] = female, rat, in vivo, 2 mg/kg
[2] = system: M. tuberculosis [ATCC #27294]; assay: MIC against M. tuberculosis in 7H9 media; assay type: cell-based; conditions: Mycobacterium tuberculosis
Pneumocystis [3] = assay: Pneumocystis pneumonia in rats, therapy or prophylaxis
[4] = system: Aspergillus fumigatus clinical isolate 293 (Af293); assay: Prophylactic efficacy in Aspergillus-infected immunosuppressed mice; assay type: in vivo, ICR mice; conditions: 2.5 or 5.0 mg/kg/day oral from day -2 through day +7
[5] = Tissue distribution of [14C]radio-labeled tafenoquine in male rats; assay type: in vivo, rat; conditions: for concentration of tafenoquine in lung: 25 mg base/kg single oral dose
Description: FIG. 3: Concentration of tafenoquine in microgram equivalents per g of tissue in various tissues of male rats 12 h following administration of [14C]radio-labeled tafenoquine (25 mg base/kg). Radioactivity was measured in the combusted organs of euthanized rats by liquid scintillation analysis.
In this study, a single oral dose of [14C]radio-labeled tafenoquine (25 mg base/kg) was given to 60 male rats, and then groups of 5 animals were killed at time points ranging from 30 minutes to 120 hours post-dose. Radioactivity in the combusted organs of killed animals was measured by liquid scintillation analysis. When expressed as microgram equivalents tafenoquine per gram of tissue, the concentration of tafenoquine in lung were at 0.5, 1, 6, 12, 24, 48, 72, 96, and 120 hours post-administration were 1.21, 6.43, 133, 154, 136, 119, 83.7, 59.4, and 44.4, respectively.

SARS-CoV-2 [6] = assay: SARS-CoV-2 antiviral assay in CALU-3 cells; assay type: cell-based; conditions: Severe acute respiratory syndrome coronavirus 2, medium with 10% fetal bovine serum, read-out: EC50 (same as IC50 of FIG. 4)
SARS-CoV-2 [7] = assay: microbe, parasite or virus in culture; assay type: cell-based; conditions: Severe acute respiratory syndrome coronavirus 2, Vero C1008; Vero E6, moi 0.05, 48 hours, TCID50
Pneumocystis [8] = assay: Pneumocystis in vitro (Bartlett et al., 1991); assay type: cell-based; conditions: read-out: equivalent MIC in the absence of protein
From the text: Therefore, the minimum inhibitory concentration in vitro is approximately 10 microgram/ml.

Pneumocystis [9] = conditions: cited from earlier work; for minimum dose required to reduce parasitemia nearly to zero: two to three week period
[10] = Plasma levels of tafenoquine in humans; conditions: human, in vivo
[11] = rat, in vivo, 125 mg/kg; cited from earlier work

For COc1cc(C)c2c(Oc3cccc(C(F)(F)F)c3)c(OC)cc(NC(C)CCCN)c2n1.O=C(O)CCC(=O)O (stereo not drawn) [Tafenoquine Succinate], the MIC50 (Candida albicans; ATCC90028, read-out: MIC 50% inhibition, isolate ATCC 90028) was 4 µg/mL, the MIC (Candida albicans; ATCC90028, read-out: MIC 100% inhibition, isolate ATCC 90028) was 4 µg/mL and the MIC50 (Candida albicans; read-out: MIC 50% inhibition, isolate CA3) was 4 µg/mL. The MIC50 (Candida albicans; read-out: MIC 50% inhibition, isolate SC5314) was 8 µg/mL, the MIC (Candida albicans; read-out: MIC 100% inhibition, isolate CA3) was 4 µg/mL and the MIC (Candida albicans; read-out: MIC 100% inhibition, isolate SC5314) was 8 µg/mL. The MIC50 (Fusarium sp.; read-out: MIC 50% inhibition, isolate FO1) was 8 µg/mL, the MIC50 (Fusarium sp.; read-out: MIC 50% inhibition, isolate FS2) was 16 µg/mL and the MIC50 (Fusarium sp.; read-out: MIC 50% inhibition, isolate FSI) was 8 µg/mL. It also gave an MIC (Fusarium sp.; read-out: MIC 100% inhibition, isolate FO1) of 16 µg/mL, an MIC (Fusarium sp.; read-out: MIC 100% inhibition, isolate FS2) of 16 µg/mL and an MIC (Fusarium sp.; read-out: MIC 100% inhibition, isolate FSI) of 16 µg/mL. For the same compound, the MIC50 (Cryptococcus neoformans; Cryptococcus neoformans, read-out: MIC 50% inhibition, isolate CN3) was 4 µg/mL, the MIC50 (Cryptococcus neoformans; Cryptococcus neoformans, read-out: MIC 50% inhibition, isolate H99) was 4 µg/mL and the MIC50 (Cryptococcus neoformans; Cryptococcus neoformans, read-out: MIC 50% inhibition, isolate USC1597) was 4 µg/mL. For the same compound, the MIC (Cryptococcus neoformans; Cryptococcus neoformans, read-out: MIC 100% inhibition, isolate USC1597) was 4 µg/mL, the “MIC 100% inhibition” value (Cryptococcus neoformans; isolate CN3) was 4 µg/mL and the “MIC 100% inhibition” value (Cryptococcus neoformans; isolate H99) was 4 µg/mL. The MIC50 (Curvularia sp.; read-out: MIC 50% inhibition, isolate Curv1) was 2 µg/mL, the MIC (Curvularia sp.; read-out: MIC 100% inhibition, isolate Curv1) was 8 µg/mL and the MIC50 (Altenaria sp.; read-out: MIC 50% inhibition) was 2 µg/mL. For the same compound, the MIC (Altenaria sp.; read-out: MIC 100% inhibition) was 4 µg/mL, the MIC50 (Scedosporium sp.; Scedosporium, read-out: MIC 50% inhibition, isolate 00-180) was 4 µg/mL and the MIC (Scedosporium sp.; Scedosporium, read-out: MIC 100% inhibition, isolate 00-180) was 8 µg/mL. The MIC (Scedosporium sp.; Scedosporium, read-out: MIC 100% inhibition, isolate LPI) was 8 µg/mL, the MIC (Scedosporium sp.; Scedosporium, read-out: MIC 100% inhibition, isolate Scedo1) was 4 µg/mL and the “MIC 50% inhibition” value (Scedosporium sp.; isolate LPI) was 4 µg/mL. The “MIC 50% inhibition” value (Scedosporium sp.; isolate Scedo1) was 4 µg/mL, the MIC (Streptococcus pneumoniae; Streptococcus pneumoniae, ATCC49619, isolate ATCC 49619, read-out: MIC) was 16 µg/mL and the MIC (Streptococcus pneumoniae; Streptococcus pneumoniae, isolate MD77773, read-out: MIC) was 16 µg/mL. It also gave an MIC (Streptococcus pneumoniae; isolate CO314937) of 16 µg/mL, an MIC (Enterococcus faecium) of 8 µg/mL and an MIC (P. aeruginosa; ATCC27853, isolate ATCC 27853) of over 64 µg/mL. The MIC (P. aeruginosa; isolate AR-230) was over 64 µg/mL, the MIC (P. aeruginosa; isolate J4242) was over 64 µg/mL and the “MIC 100% inhibition” value (Emergomyces sp.; isolate Emerg3) was 4 µg/mL. It also gave an MIC50 (Emergomyces sp.; read-out: MIC 50% inhibition, isolate Emerg2) of 4 µg/mL, an MIC50 (Emergomyces sp.; read-out: MIC 50% inhibition, isolate Emerg3) of 2 µg/mL and an MIC (Emergomyces sp.; read-out: MIC 100% inhibition, isolate Emerg2) of 4 µg/mL.

With COc1cc(C)c2c(Oc3cccc(C(F)(F)F)c3)c(OC)cc(NC(C)CCCN)c2n1 (stereo not drawn) [Tafenoquine, N(4)-[2,6-Dimethoxy-4-methyl-5-[3-(trifluoromethyl)phenoxy]quinolin-8-yl]pentane-1,4-diamine] the “Estimate of plasma concentration following a single dose of 2 mpk in rats” value [1] was 35.84 ng/mL, the MIC ([2]; ATCC27294, 168 h, 7H9 with BSA, DPPC and cholesterol, 1 week, read-out: MIC) was 9.4 µg/mL (≈ 20.3 µM) and the MIC ([2]; ATCC27294, 168 h, 7H9 with casitone and DPPC, 1 week, read-out: MIC) was 4.7 µg/mL (≈ 10.1 µM). The MIC ([2]; ATCC27294, 168 h, 7H9 with glucose and BSA, 1 week, read-out: MIC) was 12.5 µg/mL (≈ 27 µM), the MIC ([2]; ATCC27294, 168 h, 7H9 with glucose and casitone, 1 week, read-out: MIC) was 4.7 µg/mL (≈ 10.1 µM) and the MIC ([2]; ATCC27294, 336 h, 7H9 with BSA, DPPC and cholesterol, 2 weeks, read-out: MIC) was 12.5 µg/mL (≈ 27 µM). It also gave an MIC ([2]; ATCC27294, 336 h, 7H9 with casitone and DPPC, 2 weeks, read-out: MIC) of 6.25 µg/mL (≈ 13.5 µM), an MIC ([2]; ATCC27294, 336 h, 7H9 with glucose and BSA, 2 weeks, read-out: MIC) of 19 µg/mL (≈ 41 µM) and an MIC ([2]; ATCC27294, 336 h, 7H9 with glucose and casitone, 2 weeks, read-out: MIC) of 6.25 µg/mL (≈ 13.5 µM). For the same compound, the MIC ([2]; ATCC27294, range over Examples 19-22, read-out: MIC against replicating forms of tuberculosis in vitro) was 4.7 to 18 µg/mL (≈ 10.1 to 38.8 µM), the “corresponding steady state plasma level” value (Pneumocystis [3]; prophylaxis) was about 36 nanogram/ml and the “effective minimum inhibitory concentration in lungs” value (Pneumocystis [3]; prophylaxis) was 23 micrograms/g. For the same compound, the “corresponding steady state plasma level” value (Pneumocystis [3]; treatment) was “approximately 125 nanogram/ml”, the “effective minimum inhibitory concentration in lungs” value (Pneumocystis [3]; treatment) was 81 micrograms/g and the pulmonary fungal burden [4] was “dose-related, albeit non-statistically significant trend towards reduced fungal burden”. The “survival versus vehicle control” value ([4]; followed until day 12) was “no statistical differences in survival”, the “concentration of tafenoquine in lung” value ([5]; 0.5 hours post-administration) was 1.21 microgram equivalents tafenoquine per gram of tissue and the “concentration of tafenoquine in lung” value ([5]; 1 hour) was 6.43 microgram equivalents tafenoquine per gram of tissue. The “concentration of tafenoquine in lung” value ([5]; 6 hours) was 133 microgram equivalents tafenoquine per gram of tissue, the “concentration of tafenoquine in lung” value ([5]; 12 hours) was 154 microgram equivalents tafenoquine per gram of tissue and the “concentration of tafenoquine in lung” value ([5]; 24 hours) was 136 microgram equivalents tafenoquine per gram of tissue. For the same compound, the “concentration of tafenoquine in lung” value ([5]; 48 hours) was 119 microgram equivalents tafenoquine per gram of tissue, the “concentration of tafenoquine in lung” value ([5]; 72 hours) was 83.7 microgram equivalents tafenoquine per gram of tissue and the “concentration of tafenoquine in lung” value ([5]; 96 hours) was 59.4 microgram equivalents tafenoquine per gram of tissue. For the same compound, the “concentration of tafenoquine in lung” value ([5]; 120 hours) was 44.4 microgram equivalents tafenoquine per gram of tissue, the “lung:blood concentration ratio” value ([5]; rat) was 250 and the “ratio of lung:plasma concentrations” value ([5]; rat) was about 650. The tissue accumulation ([5]; rat, FIG. 3) was “accumulate in lung more than any other tissue in the body”, the EC50 (SARS-CoV-2 [6]) was 8.6 µM and the EC50 (SARS-CoV-2 [7]) was 2.6 µM. For the same compound, the MIC (Pneumocystis [8]) was 5 µg/mL, the “minimum dose required to reduce parasitemia nearly to zero” value (Pneumocystis [9]; prophylaxis, once every 4 days orally) was 4 mg/kg and the “Dose in female rats required to exhibit a statistically significant impairment of Pneumocystis replication” value (Pneumocystis [9]; treatment modality) was 2 mpk q 4 days and 2 mpk q 4 mpk q 4 days. The “minimum dose required to reduce parasitemia nearly to zero” value (Pneumocystis [9]; treatment, daily orally) was 4 mg/kg/day, the “ratio between steady state and single dose concentrations” value [10] was “approximately 3.3” and the “Maximum plasma concentration following a single 125 mpk dose in female rats” value [11] was 2240 ng/mL.
